Data as given in US10359430B2, “Selective near-infrared optical imaging of necrotic cells and simultaneous cell fixing and counter staining with metallacrown complexes” (THE REGENTS OF THE UNIVERSITY OF MICHIGAN, priority 2015, dated 2019).

Legend:
HeLa cells [1] = test: Cytotoxicity test with Alamar blue; assay type: cell-based, Human; details: FIG. 6, text says 5 hours, figure legend 24 and 48 hours
Procedure: In order to determine if the LnZn16(pyz)16MC complexes (Ln^3+Zn(II)MCHAD are toxic for live cells, cytotoxicity tests with Alamar blue were performed.
Alamar blue is viability reagent which functions as a cell health indicator by using the reducing power of living cells to quantitatively measure the proliferation of different human and animal cell lines. This enables the cytotoxicity of different chemical complexes to be determined. The active ingredient of Alamar Blue is resazurin, which is non-toxic and cell permeable compound, and upon entering in the cells, it is reduced to highly fluorescent resorufin.
The cytotoxicity tests were performed with Alamar blue assay (Invitrogen, France). HeLa cells were seeded in 96-well plate at the density of 1*10^4 cells per well and cultured at 37° C. in 5% humidified CO2 atmosphere. After 24 hours of attachment, the cells were incubated with different concentrations of Yb^3+[Zn(II)MCpyzHA] in cell culture medium for 24 and 48 hours followed by incubation with Alamar blue (10% v/v) for 3 to 4 hours at 37° C. in 5% humidified CO2 atmosphere.
Fluorescence of Alamar blue was measured with plate reader (Victor 3V, Perkin Elmer, France), with excitation at 530 nm and emission at 590 nm, for cells incubated with Yb^3+[Zn(II)MCpyzHA] and for untreated cells (control).

HeLa cells [2] = test: NIR epifluorescence microscopy of HeLa cells (necrotic cell labelling, simultaneous staining and fixing); assay type: cell-based, Human; details: 150 μM complex and 3 μM propidium iodide together, UV light (377 nm) 5 minutes
Procedure: Cells were seeded in a 8-well Lab Tek Chamber coverglass (Nunc, Dutsher S.A., Brumath, France) at a density of 6×10^4 cells/well and cultured at 37° C. in 5% humidified CO2 atmosphere.
The continued incubation enabled the internalization of the complexes.
All of the previously mentioned incubated HeLa cells were then washed with fresh OPTI-MEM® media and were incubated with 3 μM propidium iodide for 5 minutes. Propidium iodide is a commercially available stain (emitting in the visible range) for necrotic cells, and was used to confirm cell necrosis.
i. 377 nm with 50 nm band-pass filter with 50 nm bandwidth for the excitation and 805 nm long-pass filter 805 nm or 996 nm band-pass filter with 70 nm bandwidth for YbIII emission in the NIR range.
ii. […] for the excitation and 805 nm long-pass filter 805 nm or 996 nm band-pass filter with 70 nm bandwidth for YbIII emission in the NIR range. […]

HeLa cells [3] = test: Confocal microscopy of HeLa cells; assay type: cell-based, Human; details: 150 μM, 15 minutes, UV light (377 nm) 8 minutes, further 1 hour; λex 458 nm, λem 499-799 nm
From the text: Complexes were excited with Argon laser at 458 nm and emission signal was collected from 499 nm to 799 nm. During this experiment, a 63× Plan-Apochromat objective was used (2× zoom).

[4] = Photostability stress tests; assay type: physicochemical; details: 150 μM in water and OPTI-MEM media, 5 hours of irradiation with 377 nm light
Procedure: Photostability stress tests of Yb^3+[Zn(II)MCpyzHA] (Yb λem=980 nm) and Nd^3+[Zn(II)MCpyzHA] (Nd λem=1064 nm) and the commercially available dye for necrotic cells (Propidium Iodide) were performed. The complexes (150 μM) or dye (50 μM) were dissolved in water and the complexes were also dissolved in OPTI-MEM® media. The MC solutions were exposed to 5 hours of UV radiation (377 nm). The propidium iodide solution was exposed to 5 hours of UV radiation (530 nm).

HeLa cells [5] = test: Raman spectroscopy of fixed HeLa cells; assay type: cell-based, Human; details: cells stained and fixed as in Example 1
Procedure: Raman spectroscopy maps were collected for living HeLa cells, HeLa cells that were fixed with paraformaldehyde (PFA), HeLa cells that were fixed with methanol (MeOH), and HeLa cells that were stained and fixed with Yb^3+[Zn(II)MCpyzHA] using the example method disclosed herein (as described in Example 1).
Cells were seeded in an 8-well Lab Tek Chamber coverglass, as previously described in Example 1. Cells were washed trice with OPTI-MEM® (room temperature) and incubated with 4% PFA solution in PBS (Phosphate Buffered Saline) for 30 minutes at room temperature. […]
To study the changes between the different samples, a background subtraction was applied and the signal was collected in the range of 0-4000 cm^−1 in different cellular structures, cytoplasm and nucleus, allowing to observe the variations of specific vibrations arising from the nucleic acids and proteins, in particular, the CH vibrational bands at 2800-3300 cm^−1 that reflect a distribution of proteins, lipids and carbohydrates in cells and often used to localize cellular organelles, as well as OH band in the range of 3100-3650 cm^−1. […] However, a more detailed analysis of Raman signal is required to fully quantify and identify corresponding peaks in order to completely understand changes in the biomolecular profile observed for the fixation with Yb^3+[Zn(II)MCpyzHA].

[6] = system: MSC (Mesenchymal Stem Cells); details: 150 μM, 15 minutes, UV light (377 nm) 8 minutes, further 1 hour
Procedure: The MSC (Mesenchyml Stem Cells) cell line was obtained from University in Orleans, 13MTO Laboratory (Orleans, France). The as-received MSC cell line has been obtained from the bone marrow of rats. The MSC cell line was cultured in Minimum Essential Medium (MEM) supplemented with 10% heat-inactivated fetal bovine serum (FBS), 1% of L-glutamine (GlutaMAX) and 1% of streptomycin/penicillin antibiotics. The MSC were also seeded in a similar manner to the HeLa cells.
After 24 hours, the respective cell culture media was removed and the HeLa cells or MSC were incubated with the Yb^3+[Zn(II)MCpyzHA] complex according to one of the following procedures.
The MSC cells were incubated with a solution of 150 μM Yb^3+[Zn(II)MCpyzHA] complex in OPTI-MEM® media (supplemented with 2% of FBS at 37° C. in 5% CO2 atmosphere) for 15 minutes, illuminated with UV light (377 nm) for 8 minutes, and then were allowed to continue incubating for 1 hour.
Prior to epifluorescent imaging, the HeLa and the MSC cells were washed twice with OPTI-MEM® (room temperature) in order to remove any non-specifically bound Yb^3+[Zn(II)MCpyzHA] complex.

[7] = Photophysical properties of the metallacrowns in solid state and in aqueous solutions; assay type: physicochemical
HeLa cells [8] = test: NIR epifluorescence microscopy of HeLa cells (necrotic cell labelling, simultaneous staining and fixing); assay type: cell-based, Human; details: for Colocalization with propidium iodide: then 3 μM PI 5 minutes
[9] = 150 μM, 15 minutes, UV light (377 nm) 8 minutes, further 1 hour

With `O=C([N-][O-])c1cnccn1.O=C([N-][O-])c1cnccn1.O=C([N-][O-])c1cnccn1.O=C([N-][O-])c1cnccn1.O=C([N-][O-])c1cnccn1.O=C([N-][O-])c1cnccn1.O=C([N-][O-])c1cnccn1.O=C([N-][O-])c1cnccn1.O=C([N-][O-])c1cnccn1.O=C([N-][O-])c1cnccn1.O=C([N-][O-])c1cnccn1.O=C([N-][O-])c1cnccn1.O=C([N-][O-])c1cnccn1.O=C([N-][O-])c1cnccn1.O=C([N-][O-])c1cnccn1.O=C([N-][O-])c1cnccn1.O=S(=O)([O-])C(F)(F)F.O=S(=O)([O-])C(F)(F)F.O=S(=O)([O-])C(F)(F)F.[Yb+3].[Zn+2].[Zn+2].[Zn+2].[Zn+2].[Zn+2].[Zn+2].[Zn+2].[Zn+2].[Zn+2].[Zn+2].[Zn+2].[Zn+2].[Zn+2].[Zn+2].[Zn+2].[Zn+2].c1ccncc1.c1ccncc1.c1ccncc1.c1ccncc1.c1ccncc1.c1ccncc1.c1ccncc1.c1ccncc1` [Yb^3+[Zn(II)MCpyzHA]] the Cells remained alive (HeLa cells [1]; 45 μM) was “approximately 70%”, the “Concentration from which the complex started to be significantly toxic” value (HeLa cells [1]) was at least 45 µM and the “Incubation time after which emission was observed in cells after UV illumination” value (HeLa cells [2]) was 20 min. The “Intracellular location (confocal, visible ligand emission)” value (HeLa cells [3]) was “specifically located in nucleus as well as in cytoplasm”, the Photostability [4] was “fully photostable” and the “Biomolecular profile of fixed HeLa cells compared with PFA and methanol fixation (Raman)” value (HeLa cells [5]) was “very similar biomolecular profiles”. For the same molecule, the “Function in MSC cells” value [6] was “acting as an NIR dye and cell fixative”, the “τ (luminescence lifetime), D2O” value ([7]; 200 μM in D2O, room temperature, excitation at 355 nm) was 81.3(1) μs and the “τ (luminescence lifetime), H2O” value ([7]; 200 μM in H2O, room temperature, excitation at 355 nm) was 5.57(1) μs. For the same molecule, the “q (number of coordinated water molecules)” value ([7]; calculated from lifetimes, estimated error ±0.2) was 0, the “τ (luminescence lifetime), Solid” value ([7]; solid state, room temperature, excitation at 355 nm) was 45.6(3) μs and the “Selectivity of labelling for necrotic cells” value (HeLa cells [8]; 45 μM, 15 minutes, no UV light exposure (also 150 μM, 12 hours)) was “going exclusively in necrotic cells”. The “Specificity of the dye for cell state” value (HeLa cells [8]; 150 μM complex and 3 μM propidium iodide together, UV light (377 nm) 5 minutes) was “specific for dead and apoptotic cells”, the “NIR staining of fixed HeLa cancer cells (cell compartments)” value (HeLa cells [8]; [9]) was “operates as a NIR stain for the nucleus as well as for the cytoplasm” and the “Shape and morphology of stained and fixed cells one month after the procedure” value (HeLa cells [8]; 150 μM, 15 minutes, UV light (377 nm) 8 minutes, further 1 hour, imaged one month later) was “maintained the same shape and morphology”. The “Colocalization with propidium iodide” value (HeLa cells [8]; [9]) was “colocalize in the same cell compartments”, the “Colocalization with propidium iodide” value (HeLa cells [8]; 150 μM, 12 hours, no UV light) was “colocalize in the same cell compartment” and the “Toxicity to the HeLa cell line” value (HeLa cells [8]; 150 μM, incubation during 12 hours, no UV light exposure) was “toxic”.
